We go through 18 compounds from patent publication US12421253B2 (Mirati Therapeutics, Inc., priority 2020, dated 2025).

The target in one experiment is T1, KRas^WT (Homo sapiens, UniProt P01116).
T1 construct: […]; biotin (biotinylated); purchased Accelegan Inc
The experiment can be described thus: KRas binding assay (TR-FRET displacement of Cy5 labelled tracer). In general terms: In TR-FRET formats the signal depends on donor and acceptor labels being close together.

The next experiment concerns the target T2, KRas^G12A (Homo sapiens, UniProt P01116, G12A).
T2 construct: […]; biotin (biotinylated); purchased Accelegan Inc
The experiment is described as above.

For the next experiment, the target named is T3, KRas^G12D (Homo sapiens, UniProt P01116, G12D).
T3 construct: […]; biotin (biotinylated); purchased Accelegan Inc
Described as above.

Another experiment concerns the target T4, KRas^G12R (Homo sapiens, UniProt P01116, G12R).
T4 construct: […]; biotin (biotinylated); purchased Accelegan Inc
The experiment is described as above.

The target in the next experiment is T5, KRas^G12S (Homo sapiens, UniProt P01116, G12S).
T5 construct: […]; biotin (biotinylated); purchased Accelegan Inc
The experiment is described as above.

Another experiment addresses T6, KRas^G12V (Homo sapiens, UniProt P01116, G12V).
T6 construct: […]; biotin (biotinylated); purchased Accelegan Inc
The experiment is described as above.

The target in a further experiment is KRas^G12C (Homo sapiens, UniProt P01116, G12C). The experiment can be described thus: biochemical.
The target of another experiment is KRas^G13D (Homo sapiens, UniProt P01116, G13D). The experiment is described as follows: biochemical.
A further experiment concerns the target KRas^Q61H (Homo sapiens, UniProt P01116, Q61H). The experiment can be described thus: biochemical.

T6 sequence (P01116 1-169 isoform P01116-2 G12V): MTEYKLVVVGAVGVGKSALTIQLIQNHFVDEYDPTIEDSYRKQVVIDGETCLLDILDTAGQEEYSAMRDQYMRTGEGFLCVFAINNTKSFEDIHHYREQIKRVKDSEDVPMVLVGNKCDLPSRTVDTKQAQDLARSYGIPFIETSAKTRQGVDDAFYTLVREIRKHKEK
Sequence of KRas^G12C (P01116 1-169 isoform P01116-2 G12C): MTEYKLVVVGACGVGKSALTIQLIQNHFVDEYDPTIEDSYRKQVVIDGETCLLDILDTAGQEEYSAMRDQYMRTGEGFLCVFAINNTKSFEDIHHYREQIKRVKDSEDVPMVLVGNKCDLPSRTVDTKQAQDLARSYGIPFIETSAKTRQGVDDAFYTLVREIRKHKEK
Sequence of KRas^Q61H (P01116 1-169 isoform P01116-2 Q61H): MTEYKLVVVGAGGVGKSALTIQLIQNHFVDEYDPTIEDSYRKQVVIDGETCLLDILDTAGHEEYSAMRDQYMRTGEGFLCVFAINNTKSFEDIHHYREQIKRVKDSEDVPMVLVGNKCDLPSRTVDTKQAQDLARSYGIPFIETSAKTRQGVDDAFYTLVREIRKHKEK
T3 sequence (P01116 1-169 isoform P01116-2 G12D): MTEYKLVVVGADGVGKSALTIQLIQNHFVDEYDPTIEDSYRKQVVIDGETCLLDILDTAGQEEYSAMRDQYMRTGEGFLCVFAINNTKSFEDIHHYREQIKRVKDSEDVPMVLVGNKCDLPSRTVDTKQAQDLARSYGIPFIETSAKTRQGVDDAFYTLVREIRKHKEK
T1 sequence (P01116 1-169 isoform P01116-2): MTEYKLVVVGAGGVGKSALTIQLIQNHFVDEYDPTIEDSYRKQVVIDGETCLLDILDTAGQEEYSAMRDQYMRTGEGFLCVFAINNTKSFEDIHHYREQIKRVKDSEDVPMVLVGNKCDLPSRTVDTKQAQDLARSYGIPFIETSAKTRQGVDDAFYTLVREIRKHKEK
Sequence of KRas^G13D (P01116 1-169 isoform P01116-2 G13D): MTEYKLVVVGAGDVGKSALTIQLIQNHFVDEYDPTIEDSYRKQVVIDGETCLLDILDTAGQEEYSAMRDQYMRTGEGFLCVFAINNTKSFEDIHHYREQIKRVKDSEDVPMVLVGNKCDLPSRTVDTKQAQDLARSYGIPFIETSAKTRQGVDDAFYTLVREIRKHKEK
T4 sequence (P01116 1-169 isoform P01116-2 G12R): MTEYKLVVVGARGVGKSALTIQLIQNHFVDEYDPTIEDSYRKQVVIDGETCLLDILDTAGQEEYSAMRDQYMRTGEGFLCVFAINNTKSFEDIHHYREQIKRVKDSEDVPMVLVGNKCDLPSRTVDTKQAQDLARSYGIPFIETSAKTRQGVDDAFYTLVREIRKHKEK
T2 sequence (P01116 1-169 isoform P01116-2 G12A): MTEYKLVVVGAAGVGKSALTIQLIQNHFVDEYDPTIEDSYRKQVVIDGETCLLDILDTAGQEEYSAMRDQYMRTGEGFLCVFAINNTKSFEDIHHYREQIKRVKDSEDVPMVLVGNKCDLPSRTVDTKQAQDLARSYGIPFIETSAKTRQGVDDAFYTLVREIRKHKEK
T5 sequence (P01116 1-169 isoform P01116-2 G12S): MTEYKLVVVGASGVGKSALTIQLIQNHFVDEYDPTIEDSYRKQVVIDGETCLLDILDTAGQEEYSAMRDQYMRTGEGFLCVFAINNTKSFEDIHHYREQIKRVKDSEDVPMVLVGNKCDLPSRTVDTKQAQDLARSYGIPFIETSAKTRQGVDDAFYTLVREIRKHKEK
Description for KRas^G12A: (§1) The ability of a compound to bind to KRas was measured using a TR-FRET displacement assay. […] After a 60-minute incubation at room temperature, the reaction was measured using a BMG LABTECH CLARIO star Plus via TR-FRET. […] The POC values were fit to a 4-parameter IC50 equation and the IC50 value reported.
Description for KRas^G12C: as §1
Description for KRas^G12D: as §1
Description for KRas^G12R: as §1
Description for KRas^G12S: as §1
Description for KRas^G12V: as §1
Description for KRas^G13D: as §1
Description for KRas^Q61H: as §1
Description for KRas^WT: as §1

By IC50 is commonly meant the concentration needed to halve the response being measured. Lower therefore signals greater potency. For the compound `CCc1cccc2cccc(N3CCc4c(nc(OCC56CCCN5CCC6)nc4NCCNc4ncccc4C#N)C3)c12` [Example 154, 2-((2-((7-(8-ethylnaphthalen-1-yl)-2-((tetrahydro-1H-pyrrolizin-7a(5H)-yl)methoxy)-5,6,7,8-tetrahydropyrido[3,4-d]pyrimidin-4-yl)amino)ethyl)amino)nicotinonitrile], the half-inhibitory concentration (IC50) on KRas^WT was found to be 6790 nM; at KRas^G12A, 4040 nM; on KRas^G12D, 35700 nM; at KRas^G12R, 2370 nM; on KRas^G12S, 7120 nM; at KRas^G12V, 3070 nM. Also, the IC50 was determined as 1790 nM against KRas^G12C, 8230 nM against KRas^G13D and 6910 nM on KRas^Q61H.
Take `CCc1cccc2cccc(N3CCc4c(nc(OCC56CCCN5CCC6)nc4N4CCCC(S(=O)(=O)NC)C4)C3)c12` (stereo not shown) [Example 125, 1-(7-(8-ethylnaphthalen-1-yl)-2-((tetrahydro-1H-pyrrolizin-7a(5H)-yl)methoxy)-5,6,7,8-tetrahydropyrido[3,4-d]pyrimidin-4-yl)-N-methylpiperidine-3-sulfonamide]: the IC50 amounted to 651 nM at KRas^WT; 1320 nM on KRas^G12A; 1030 nM at KRas^G12D; 1490 nM at KRas^G12R; 665 nM on KRas^G12S; 1410 nM at KRas^G12V. Further, the concentration for half-maximal inhibition (IC50) against KRas^G12C turned out to be 1200 nM; at KRas^G13D it was 720 nM; on KRas^Q61H, 1050 nM.
Regarding `O=C1NC(=O)C2CN(c3nc(OCC45CCCN4CCC5)nc4c3CCN(c3cccc5cccc(Br)c35)C4)CC12` (stereo not shown) [Example 78, 5-(7-(8-bromonaphthalen-1-yl)-2-((hexahydro-1H-pyrrolizin-7a-yl)methoxy)-5,6,7,8-tetrahydropyrido[3,4-d]pyrimidin-4-yl)tetrahydropyrrolo[3,4-c]pyrrole-1,3(2H,3aH)-dione], the IC50 on KRas^WT was 73 nM; on KRas^G12A, 59 nM; on KRas^G12D it was 30 nM; at KRas^G12R it was 81 nM; at KRas^G12S it was 22 nM; at KRas^G12V, 41 nM. The IC50 came to 80 nM against KRas^G12C, 67 nM against KRas^G13D and 112 nM against KRas^Q61H.
As to `CCc1cccc2cccc(N3CCc4c(nc(OCC56CCCN5CCC6)nc4N4CCCC(c5noc(C(F)(F)F)n5)C4)C3)c12` (stereo not shown) [Example 163, 3-(1-(7-(8-ethylnaphthalen-1-yl)-2-((tetrahydro-1H-pyrrolizin-7a(5H)-yl)methoxy)-5,6,7,8-tetrahydropyrido[3,4-d]pyrimidin-4-yl)piperidin-3-yl)-5-(trifluoromethyl)-1,2,4-oxadiazole], the values for the IC50 on KRas^G12D, on KRas^G12R and on KRas^G12V were 7110 nM, 3460 nM and 5170 nM, respectively.
On to `CCc1cccc2cccc(N3CCc4c(nc(OCC56CCCN5CCC6)nc4N4CCCCC(CO)C4)C3)c12` (stereo not shown) [Example 38, (1-(7-(8-ethylnaphthalen-1-yl)-2-((hexahydro-1H-pyrrolizin-7a-yl)methoxy)-5,6,7,8-tetrahydropyrido[3,4-d]pyrimidin-4-yl)azepan-3-yl)methanol], for which the IC50 on KRas^WT was 445 nM; on KRas^G12D, ≤ 2 nM; at KRas^G12R it was 485 nM; at KRas^G12V, 204 nM.
As for `Oc1cc(N2CCc3c(nc(OC[C@@]45CCCN4C[C@H](F)C5)nc3N3CC4CC(O)CC3C4)C2)c2c(Br)c(F)ccc2c1` (single isomer, unassigned) [Example 214], the IC50 came out at 558 nM at KRas^G12D, 54 nM at KRas^G12R and 118 nM on KRas^G12V.
Consider `CCc1cccc2cccc(N3CCc4c(nc(OCC56CCCN5CCC6)nc4Nc4cccnc4)C3)c12` [Example 5, 7-(8-ethylnaphthalen-1-yl)-2-((hexahydro-1H-pyrrolizin-7a-yl)methoxy)-N-(pyridin-3-yl)-5,6,7,8-tetrahydropyrido[3,4-d]pyrimidin-4-amine], for which the IC50 at KRas^G12D is 19100 nM; at KRas^G12R, 8070 nM; on KRas^G12V it was 7650 nM.
As for `CCc1cccc2cccc(N3CCc4c(nc(OCC56CCCN5CCC6)nc4N4CCCC(C)(O)C4)C3)c12` (stereo not shown) [Example 4, 1-(7-(8-ethylnaphthalen-1-yl)-2-((hexahydro-1H-pyrrolizin-7a-yl)methoxy)-5,6,7,8-tetrahydropyrido[3,4-d]pyrimidin-4-yl)-3-methylpiperidin-3-ol], the IC50 came out at 97 nM at KRas^G12D, 127 nM at KRas^G12R and 90 nM at KRas^G12V.
For `CCc1cccc2cccc(N3CCc4c(nc(OCC56CCCN5CCC6)nc4N4CCC(O)CC(CO)C4)C3)c12` (single isomer, unassigned) [Example 174, 1-(7-(8-ethylnaphthalen-1-yl)-2-((hexahydro-1H-pyrrolizin-7a-yl)methoxy)-5,6,7,8-tetrahydropyrido[3,4-d]pyrimidin-4-yl)-6-(hydroxymethyl)azepan-4-ol] the same measures were 287 nM, 24 nM and 38 nM.
With `CCc1cccc2cccc(N3CCc4c(nc(OCC56CCCN5CCC6)nc4N4CCN(c5ccncn5)CC4)C3)c12` [Example 58, 7-(8-ethylnaphthalen-1-yl)-2-((hexahydro-1H-pyrrolizin-7a-yl)methoxy)-4-(4-(pyrimidin-4-yl)piperazin-1-yl)-5,6,7,8-tetrahydropyrido[3,4-d]pyrimidine], the IC50 on KRas^G12D amounted to 20000 nM; at KRas^G12R, 7910 nM; at KRas^G12V, 2860 nM; against KRas^G12C it was 6570 nM.
For `CCc1cccc2cccc(N3CCc4c(nc(OCC56CCCN5CCC6)nc4NCC4(C)CSC4)C3)c12` [Example 171, 7-(8-ethylnaphthalen-1-yl)-N-((3-methylthietan-3-yl)methyl)-2-((tetrahydro-1H-pyrrolizin-7a(5H)-yl)methoxy)-5,6,7,8-tetrahydropyrido[3,4-d]pyrimidin-4-amine], the IC50 turned out to be 16600 nM on KRas^G12D, 8280 nM on KRas^G12R and 8800 nM at KRas^G12V.
Take `CCc1cccc2cccc(N3CCc4c(nc(OCC56CCCN5CCC6)nc4N4CCOCC(CO)C4)C3)c12` (stereo not shown) [Example 37, (4-(7-(8-ethylnaphthalen-1-yl)-2-((hexahydro-1H-pyrrolizin-7a-yl)methoxy)-5,6,7,8-tetrahydropyrido[3,4-d]pyrimidin-4-yl)-1,4-oxazepan-6-yl)methanol]: the IC50 on KRas^WT was determined as 214 nM; on KRas^G12D it was 479 nM; on KRas^G12R, 168 nM; on KRas^G12V, 221 nM.
On to `Oc1cc(N2CCc3c(nc(OC[C@@]45CCCN4C[C@H](F)C5)nc3N3CC4CC(O)CC3C4)C2)c2c(Cl)c(F)ccc2c1` (single isomer, unassigned) [Example 77], for which the figures for the 50% inhibitory concentration (IC50) at KRas^G12D, on KRas^G12R and at KRas^G12V were 740 nM, 165 nM and 188 nM, respectively.
Regarding `CCc1cccc2cccc(N3CCc4c(nc(OCC56CCCN5CCC6)nc4NCCc4ccno4)C3)c12` [Example 169, 7-(8-ethylnaphthalen-1-yl)-N-(2-(isoxazol-5-yl)ethyl)-2-((tetrahydro-1H-pyrrolizin-7a(5H)-yl)methoxy)-5,6,7,8-tetrahydropyrido[3,4-d]pyrimidin-4-amine], the IC50 is 8480 nM on KRas^G12D, 5120 nM at KRas^G12R and 7170 nM on KRas^G12V.
As to `CCc1cccc2cccc(N3CCc4c(nc(OCC56CCCN5CCC6)nc4N4CCC(O)CC(CO)C4)C3)c12` (single isomer, unassigned) [Example 172, 1-(7-(8-ethylnaphthalen-1-yl)-2-((hexahydro-1H-pyrrolizin-7a-yl)methoxy)-5,6,7,8-tetrahydropyrido[3,4-d]pyrimidin-4-yl)-6-(hydroxymethyl)azepan-4-ol], the IC50 on KRas^G12D stood at 224 nM; at KRas^G12R it was 153 nM; at KRas^G12V, 153 nM.
Regarding `CCc1cccc2cccc(N3CCc4c(nc(OCC56CCCN5CCC6)nc4N4CCCC(O)C4)C3)c12` (stereo not shown) [Example 43, 1-(7-(8-ethylnaphthalen-1-yl)-2-((hexahydro-1H-pyrrolizin-7a-yl)methoxy)-5,6,7,8-tetrahydropyrido[3,4-d]pyrimidin-4-yl)piperidin-3-ol], the IC50 at KRas^G12D amounted to 552 nM; on KRas^G12R, 198 nM; at KRas^G12V, 271 nM; against KRas^G12C, 271 nM.
As to `CCc1cccc2cccc(N3CCc4c(nc(OCC56CCCN5CCC6)nc4N4CCC(O)CC(CO)C4)C3)c12` (single isomer, unassigned) [Example 173, 1-(7-(8-ethylnaphthalen-1-yl)-2-((hexahydro-1H-pyrrolizin-7a-yl)methoxy)-5,6,7,8-tetrahydropyrido[3,4-d]pyrimidin-4-yl)-6-(hydroxymethyl)azepan-4-ol], the IC50 was found to be 1160 nM at KRas^G12D, 307 nM on KRas^G12R and 535 nM on KRas^G12V.
For the compound `CCc1c(F)ccc2cccc(N3CCc4c(nc(OCC56CCCN5CCC6)nc4N4CCC[C@@](C)(O)C4)C3)c12` [Example 3, (R)-1-(7-(8-ethyl-7-fluoronaphthalen-1-yl)-2-((hexahydro-1H-pyrrolizin-7a-yl)methoxy)-5,6,7,8-tetrahydropyrido[3,4-d]pyrimidin-4-yl)-3-methylpiperidin-3-ol], the IC50 stood at 16 nM on KRas^G12D, 25 nM on KRas^G12R and 17 nM at KRas^G12V.
